Results taken from ChEMBL document CHEMBL5726472, “Oxazolidin-2-one-pyrimidine derivatives and the use thereof as phosphatidylinositol-3-kinase inhibitors” (2019).

Columns and labels:
[1] = (§1) AlphaScreen (Amplified Luminescent Proximity Homogeneous Assay, ALPHA, Perkin Elmer) is a non-radioactive bead-based proximity assay technology to study biomolecular interactions in a homogenous microtiter plate format. The brand name SureFire denotes AlphaScreen assays that are adapted to quantify the phosphorylation of endogenous cellular proteins in cell lysates, by using matched antibody pairs, which consist of an anti-phospho-kinase and an anti-kinase antibody. The assay allows characterization of kinase signaling in cells as well as measurement of kinase inhibitor effects. The AlphaScreen technology provides several advantages over standard assay techniques such as ELISA, as it avoids time-consuming washing procedures and reduces plate handling. Furthermore, it is miniaturizable at least to a 384-well format and provides sensitivity down to the femtomolar range, dependent on the affinity of the antibodies included in the individual AlphaScreen SureFire assay kit. High sensitivity is reached by an intrinsic amplification mechanism, which involves production of singlet oxygen molecules. SureFire assay kits are commercially available for specific targets and include pairs of validated antibodies (PerkinElmer). This report describes common procedures applied for AlphaScreen SureFire assays and respective semi-automated steps for routine kinase inhibitor profiling in cell-based assays.The Rat-1 cell lines stably overexpressing activated PI3K class I isoforms Rat-1 pBABEpuro Myr-HA-hp110 delta (Rat-1_PI3Kdelta) and Rat-1 pBABEpuro Myr-HA-hp110alpha (Rat-1_PI3Kalpha) and Rat-1 pBABEpuro Myr-HA-hp110 beta (Rat-1_PI3beta) were prepared as described (Maira S M, Stauffer F, Brueggen J, Furet P, Schnell C, Fritsch C, Brachmann S, Chène P, de Pover A, Schoemaker K, Fabbro D, Gabriel D, Simonen M, Murphy L, Finan P, Sellers W, Garcia-Echeverria C (2008), Mol Cancer Ther. 7:1851-63 and Maira S M, Pecchi S, Brueggen J, Huh K, Schnell C, Fritsch C, Nagel T, Wiesmann M, Brachmann S, Dorsch M, Chène P, Schoemaker K, De Pover A, Menezes D, Fabbro D, Sellers W, Garcia-Echeverria C, Voliva CF (2011), Mol. Cancer Ther., accepted). All cell lines were cultivated in complete growth medium (DMEM high glucose, 10% (v/v) fetal bovine serum, 1% (v/v) MEM NEAA, 10 mM HEPES, 2 mM L-glutamine, puromycin (10 μg/mL for Rat-1_PI3Kdelta and Rat-1_PI3Kalpha, 4 ug/mL for Rat-1_PI3beta), 1% (v/v) Pen/Strep) to 90% confluency at 37° C./5% CO2/90% humidity in a humidified CO2 incubator and were split twice a week.The following materials were used for p-AKT(5473) detection in Rat-1 cell lysates: Dulbecco's modified Eagle's medium (DMEM) high glucose (Gibco Invitrogen, Basel, Switzerland, Cat. No. 41965), Heat Inactivated Fetal Bovine Serum, Qualified (HI FBS; Gibco Invitrogen, Basel, Switzerland, Lot. No. 16140), MEM non essential amino acids (NEAA; Gibco Invitrogen, Basel, Switzerland, Cat. No. 11140), HEPES (Gibco Invitrogen, Basel, Switzerland, Cat. No. 15630), Penicillin/Streptomycin (Pen/Strep, 100x; Gibco Invitrogen, Basel, Switzerland, Cat. No. 15140-122), L-Glutamine (Gibco Invitrogen, Basel, Switzerland, Cat. No. 25030), Puromycin (Sigma Aldrich, Buchs, Switzerland, Cat. No. P9620), DMSO (MERCK, Dietikon, Switzerland, Cat. No. 8.02912.2500), H2O, MilliQ-H2O unless otherwise stated (MILLIPORE QGARDOOR1, Millipore, Zug, Switzerland), Bovine serum albumine (BSA; Sigma Aldrich, Buchs, Switzerland Cat. No. A8412), SureFire p-Akt ½ (Ser473) Assay Kit (PerkinElmer, Schwerzenbach, Switzerland, Cat. No. TGRAS50K).The p-Akt(5473) SureFire assay measures the phosphorylation of endogenous cellular Akt ½ at Ser473 in cell lysates. Using Rat-1 cells stably expressing myr-HA-tagged versions of the human PI3Kdelta, PI3Kalpha, or PI3Kbeta p110 catalytic subunit isoforms, the assay was developed as a two-plate protocol in a 384-well format. For compound testing, the cells were seeded at a density of 4000 (Rat-1_PI3Kdelta), 7500 (Rat-1_PI3Kalpha).
[2] = as §1, with “No. 16140), MEM non essential amino acids (NEAA; Gibco Invitrogen, Basel, Switzerland, Cat. No. 11140), HEPES (Gibco Invitrogen, Basel, Switzerland, Cat. No. 15630), Penicillin/Streptomycin (Pen/Strep, 100x; Gibco Invitrogen, Basel, Switzerland, Cat. No. 15140-122), L-Glutamine (Gibco Invitrogen, Basel, Switzerland, Cat. No. 25030), Puromycin (Sigma Aldrich, Buchs, Switzerland, Cat. No. P9620), DMSO (MERCK, Dietikon, Switzerland, Cat. No. 8.02912.2500), H2O, MilliQ-H2O unless otherwise stated (MILLIPORE QGARDOOR1, Millipore, Zug, Switzerland), Bovine serum albumine (BSA; Sigma Aldrich, Buchs, Switzerland Cat. No. A8412), SureFire p-Akt ½ (Ser473) Assay Kit (PerkinElmer, Schwerzenbach, Switzerland, Cat. No. TGRAS50K).The p-Akt(5473) SureFire assay measures the phosphorylation of endogenous cellular Akt ½ at Ser473 in cell lysates. Using Rat-1 cells stably expressing myr-HA-tagged versions of the human PI3Kdelta, PI3Kalpha, or PI3Kbeta p110 catalytic subunit isoforms, the assay was developed as a two-plate protocol in a 384-well format. For compound testing, the cells were seeded at a density of 4000 (Rat-1_PI3Kdelta), 7500 (Rat-1_PI3Kalpha).” left out

Compound	IC50 [1]	IC50 [2]
Nc1ncc(-c2cc(N3CCOCC3)nc(N3CCOCC3)n2)c(C(F)(F)F)n1	156 nM	139 nM
Nc1ncc(-c2cc(N3CCOC(c4ccccc4)C3)nc(N3CCOCC3)n2)c(C(F)(F)F)n1 (stereo unspecified)	> 10000 nM	
Nc1ncc(-c2cc(N3CCC(=O)CC3)nc(N3CCOCC3)n2)c(C(F)(F)F)n1	5310 nM	6540 nM
Nc1ncc(-c2cc(N3CCN(c4ccccc4)C3=O)nc(N3CCOCC3)n2)c(C(F)(F)F)n1	1580 nM	1470 nM
Nc1ncc(-c2cc(N3C(=O)O[C@@H](c4ccc(OCCO)cc4)[C@@H]3CO)nc(N3CCOCC3)n2)c(C(F)(F)F)n1	< 3 nM	< 3 nM
Nc1ncc(-c2cc(N3CCCCC3=O)nc(N3CCOCC3)n2)c(C(F)(F)F)n1	1540 nM	1040 nM
